# Laboratory results from PMC5449454, “Anti-Double-Stranded DNA IgG Participates in Renal Fibrosis through Suppressing the Suppressor of Cytokine Signaling 1 Signals” (Frontiers in Immunology, 2017).
# Key:
# [1] = tested on: SOCS1, JAK2 and STAT1 in mesangial cells; experiment: SOCS1/JAK2/STAT1 proteins (IF, Western blotting), mesangial cells; type: cell-based, murine; conditions: anti-dsDNA IgG 2 µg/ml premixed with peptide 1 µg/ml, 2 days
# Procedure: Immunofluorescence was carried out for both IgG deposition and SOCS1 expression in frozen sections. Routinely processed sections were incubated with rabbit anti-mouse SOCS1 and then fluorescein isothiocyanate (FITC)-conjugated goat anti-rabbit IgG (2 µg/ml; Southern Biotech, Birmingham, AL, USA) in order, or directly with goat anti-mouse IgG-FITC (Southern Biotech) alone. Sections were viewed under a digital fluorescent microscope (Carl Zeiss, Jena, Germany).
# Immortal murine mesangial cells and glomerular endothelial cells (Jieqing Biotech, Wuhan, China) were cultured in RPMI 1640 medium supplemented with 10% fetal bovine serum ([8], [33]). Immortal murine proximal tubular epithelial cells (kindly provided by Dr. Cheng Pan, Wuhan University, China) were cultured in Dulbecco’s modified Eagle’s medium as described previously ([34]).
# (§1) By using a HiTrap purification kit (GE Healthcare, Port Washington, NY, USA) ([8]), anti-dsDNA IgG was purified from the culture supernatants of murine WJ31 hydridoma clone (IgG2a; Jieqing Biotech). Control murine IgG (IgG2a; Jieqing Biotech) was verified by enzyme-linked immunosorbent assay (ELISA) to determine that there was no binding to DNA antigen (data not shown). Cells were starved routinely before the 2-day stimulation of anti-dsDNA IgG or control IgG (2 µg/ml). In some experiments, mesangial cells were stimulated with anti-dsDNA IgG (2 µg/ml) that was premixed with D-form (ALWPPNLHAWVP) or scrambled (PLPHNPWVLAAW) ALW peptide (1 µg/ml). The cell viability of three types of cells was measured using PrestoBlue viability reagent (Life Technologies, Carlsbad, CA, USA).
# (§2) Fresh tissues and cell cultures were extracted for lysates with the addition of protease inhibitor cocktail (Thermo Scientific, Waltham, MA, USA). […] The band intensities were quantitated by ImageJ 1.61u software (National Institutes of Health, Bethesda, MD, USA) and normalized to β-actin values accordingly. The intensities of blank groups were set as 1 (baseline), and the relative intensities were calculated in other groups.
# anti-dsDNA IgG = experiment: MALDI-TOF MS, catalysis of peptide by anti-dsDNA IgG; set-up: species or system murine; conditions: peptide 2 µg/ml with IgG (molar ratio = 1:5), 37°C, 30 min, triplicate, versus L-form ALW
# Procedure: Matrix-assisted laser desorption/ionization–time of flight mass spectrometry was performed for identifying the sequences of peptide fragments. As described previously ([36]), an ABI 4800 Analyzer (AB Science, Foster City, CA, USA) was used for such analysis. The ALW (L-form or D-form) and KIR peptides (2 µg/ml) were mixed with anti-dsDNA IgG or control IgG (molar ratio = 1:5), respectively. The mixtures were incubated at 37°C for 30 min. Then, these samples were diluted in distilled water (1:100) and then mixed with the α-cyano-4-hydroxycinnamic acid matrix at a ratio of 1:1. Samples in triplicate were then loaded to the MALDI target. Mass spectrum was produced on 80 individual spectra of each spot.
# [2] = tested on: SOCS1, JAK2 and STAT1 in kidneys of SCID mice; experiment: Renal SOCS1/JAK2/STAT1 proteins by Western blotting, SCID mice; type: in vivo; conditions: i.v., n = 5, versus anti-dsDNA IgG alone
# Description: Renal biopsies were obtained from patients with LN (n = 7), who had serum positivity of anti-dsDNA IgG (Table S1 in Supplementary Material). The diagnosis of LN was made based on the histological features of renal biopsies. For normal human controls, sera and non-lesional tissues were taken from patients (n = 5) who underwent surgical nephrectomy due to renal cell carcinoma or renal rupture (Table S1 in Supplementary Material). There was no statistical difference in term of age between the LN patients and the controls (p > 0.05). […] The MRL/lpr and MRL/MpJ mice (female, 12 or 24 weeks old, n = 5 each group) as well as SCID mice (female, 8 weeks old, n = 5 each group) were bred in the animal facility of Xi’an Jiaotong University Health Science Center. Urine, sera, and renal tissues were harvested from MRL/lpr and MRL/MpJ mice. Proteinuria was quantitated by the Coomassie brilliant blue method ([32]). […]
# as §2
# mesangial cells = experiment: Cell viability (PrestoBlue), mesangial cells; type: cell-based, murine; conditions: D-form ALW 1 µg/ml, 2 days
# Procedure: as §1
# (§3) Mesangial Glomerular Tubular cells endothelial epithelial
# (§4) Supplementary Figure S7. Cell viability assays of kidney cells. (A) Murine cells were cultured in vitro, and received control or anti-dsDNA IgG stimulation (2 µg/ml, 2 days). (B) Similarly, these cells were also stimulated with scrambled or D-form ALW peptide (1 µg/ml, 2 days). The cell viability was measured using PrestoBlue viability reagent. Data were from three independent experiments. Data points and error bars […]
# (§5) (also on this page, place not known: µ g/ml,2 µ g/ml,2 Cell viability (%) Cell viability (%))
# kidneys of SCID mice = experiment: Renal mRNA levels by real-time PCR, SCID mice; type: in vivo; conditions: i.v.
# Description: Renal biopsies were obtained from patients with LN (n = 7), who had serum positivity of anti-dsDNA IgG (Table S1 in Supplementary Material). The diagnosis of LN was made based on the histological features of renal biopsies. For normal human controls, sera and non-lesional tissues were taken from patients (n = 5) who underwent surgical nephrectomy due to renal cell carcinoma or renal rupture (Table S1 in Supplementary Material). There was no statistical difference in term of age between the LN patients and the controls (p > 0.05). […] The MRL/lpr and MRL/MpJ mice (female, 12 or 24 weeks old, n = 5 each group) as well as SCID mice (female, 8 weeks old, n = 5 each group) were bred in the animal facility of Xi’an Jiaotong University Health Science Center. Urine, sera, and renal tissues were harvested from MRL/lpr and MRL/MpJ mice. Proteinuria was quantitated by the Coomassie brilliant blue method ([32]). All data about MRL/lpr and MRL/MpJ mice referred to that at age of 24 weeks unless otherwise noted. These SCID mice received intravenous injections of anti-dsDNA or control IgG at a dose of 100 µg twice weekly, which lasted for 4 weeks (n = 5 each group). Then, both serum and kidney samples were collected from SCID mice. This study was carried out in accordance with the recommendations of the guidelines of the Hospital Research Ethics Committee with written informed consent from all subjects. All subjects gave written informed consent in accordance with the Declaration of Helsinki. The protocol was approved by the Hospital Research Ethics Committee.
# As previously described ([8]), total RNA was extracted from fresh tissues or cultured cells, followed by reverse transcription. The 7900HT Fast PCR System (Applied Biosystems, Carlsbad, CA, USA) was used for PCR, and SYBR Green Master Mixes (Invitrogen, Grand Island, NY, USA) was used as fluorescent dye. The sequences of primers (Jieqing Biotech) are listed in Table S2 in Supplementary Material.
# [3] = tested on: proximal tubular epithelial cells; experiment: Cell viability (PrestoBlue), proximal tubular epithelial cells; type: cell-based, murine; conditions: D-form ALW 1 µg/ml, 2 days
# Procedure: as §1, §3, §4, §5
# [4] = D-form ALW plus anti-dsDNA IgG, n = 5, versus anti-dsDNA IgG alone
# [5] = anti-dsDNA IgG pre-mixed with D-form ALW, n = 5
sequence,measurement,setting,value
"ALWPPNLHAWVP [D-form ALW, ALW peptide with two terminal residues A and P replaced with D-form ones]","JAK2 protein, ALW plus anti-dsDNA IgG (consistent with mRNA decrease)",[1],consistent changes
same,"SOCS1 protein level, ALW plus anti-dsDNA IgG",[1],increased
same,"STAT1 protein, ALW plus anti-dsDNA IgG (consistent with mRNA decrease)",[1],consistent changes
same,resistance to catalysis by anti-dsDNA IgG,anti-dsDNA IgG,enhanced resistance to catalysis
same,"renal JAK2 protein expression level, ALW plus anti-dsDNA IgG",[2],remarkable attenuation
same,"renal STAT1 protein expression level, ALW plus anti-dsDNA IgG",[2],remarkable attenuation
same,cell viability,mesangial cells,no changes
same,"renal JAK2 mRNA level, ALW plus anti-dsDNA IgG",kidneys of SCID mice; [4],reduced
same,"renal SOCS1 mRNA level, ALW plus anti-dsDNA IgG",kidneys of SCID mice; [4],not affected
same,"renal STAT1 mRNA level, ALW plus anti-dsDNA IgG",kidneys of SCID mice; [4],reduced
same,"renal PDGFB mRNA level, ALW plus anti-dsDNA IgG",kidneys of SCID mice; [5],substantial decrease
same,"renal TGF-β1 mRNA level, ALW plus anti-dsDNA IgG",kidneys of SCID mice; [5],substantial decrease
same,"renal TWEAK mRNA level, ALW plus anti-dsDNA IgG",kidneys of SCID mice; [5],substantial decrease
same,cell viability,[3],no changes
